We go through two compounds from ChEMBL document CHEMBL5465560, “Selectivity Literature for EUbOPEN Chemogenomic Library” (2024).

The target of assay [1] is T1, Myotonin-protein kinase (Homo sapiens) (UniProt Q09013).
T1 sequence (whole entry): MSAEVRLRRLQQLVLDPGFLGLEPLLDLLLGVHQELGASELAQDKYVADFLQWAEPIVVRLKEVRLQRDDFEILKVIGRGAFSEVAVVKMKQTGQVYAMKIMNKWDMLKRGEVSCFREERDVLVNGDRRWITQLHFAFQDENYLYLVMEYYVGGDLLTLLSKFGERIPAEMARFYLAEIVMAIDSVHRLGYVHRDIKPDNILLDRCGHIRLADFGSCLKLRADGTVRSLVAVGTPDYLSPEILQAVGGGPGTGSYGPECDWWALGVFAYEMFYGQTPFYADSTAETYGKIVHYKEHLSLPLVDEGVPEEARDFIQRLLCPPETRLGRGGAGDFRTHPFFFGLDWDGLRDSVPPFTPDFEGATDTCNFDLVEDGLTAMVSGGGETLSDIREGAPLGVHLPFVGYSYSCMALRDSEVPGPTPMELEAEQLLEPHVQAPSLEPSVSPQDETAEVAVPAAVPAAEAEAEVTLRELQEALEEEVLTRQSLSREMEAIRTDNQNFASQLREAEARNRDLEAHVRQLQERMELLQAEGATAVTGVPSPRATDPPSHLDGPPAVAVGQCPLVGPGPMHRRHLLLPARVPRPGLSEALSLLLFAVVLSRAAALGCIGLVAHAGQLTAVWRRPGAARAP
Put plainly: Selectivity interaction (KinomeScan (DiscoverX)) EUB0000666a DMPK. The note with it: at 10 µM.

Assay [2] concerns T2, Receptor-type tyrosine-protein kinase FLT3 (Homo sapiens), P36888 [D835H].
T2 sequence (whole entry): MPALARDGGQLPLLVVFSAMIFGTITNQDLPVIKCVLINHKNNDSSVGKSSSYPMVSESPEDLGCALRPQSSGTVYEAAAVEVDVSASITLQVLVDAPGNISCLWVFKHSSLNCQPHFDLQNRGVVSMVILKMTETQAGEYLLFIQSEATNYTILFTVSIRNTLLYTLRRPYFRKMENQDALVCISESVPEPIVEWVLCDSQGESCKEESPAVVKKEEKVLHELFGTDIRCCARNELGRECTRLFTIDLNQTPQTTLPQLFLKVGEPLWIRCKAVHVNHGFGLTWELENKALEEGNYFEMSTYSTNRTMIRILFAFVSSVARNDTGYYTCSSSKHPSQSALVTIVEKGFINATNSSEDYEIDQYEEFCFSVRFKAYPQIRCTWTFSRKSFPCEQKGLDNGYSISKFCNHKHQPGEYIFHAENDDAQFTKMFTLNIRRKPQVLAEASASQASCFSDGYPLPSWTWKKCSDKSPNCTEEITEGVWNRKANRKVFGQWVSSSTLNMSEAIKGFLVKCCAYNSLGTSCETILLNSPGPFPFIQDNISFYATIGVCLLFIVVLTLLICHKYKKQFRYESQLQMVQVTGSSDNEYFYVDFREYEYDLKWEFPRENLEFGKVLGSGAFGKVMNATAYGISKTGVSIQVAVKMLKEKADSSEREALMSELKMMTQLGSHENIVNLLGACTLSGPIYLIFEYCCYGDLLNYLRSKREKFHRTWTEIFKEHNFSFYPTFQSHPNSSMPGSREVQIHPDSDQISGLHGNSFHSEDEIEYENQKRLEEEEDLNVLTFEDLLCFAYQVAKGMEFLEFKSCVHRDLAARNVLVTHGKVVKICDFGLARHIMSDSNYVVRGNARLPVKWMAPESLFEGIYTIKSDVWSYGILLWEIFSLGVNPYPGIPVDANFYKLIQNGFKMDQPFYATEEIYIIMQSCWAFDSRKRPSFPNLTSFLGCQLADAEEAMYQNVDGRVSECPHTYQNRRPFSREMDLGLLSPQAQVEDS
Put plainly: (§1) Selectivity interaction (KinomeScan (DiscoverX)) EUB0000045b FLT3.

Assay [3] deals with T3, Receptor-type tyrosine-protein kinase FLT3 (Homo sapiens), P36888 [N841I].
T3 sequence (whole entry): T2 sequence (whole entry) with H835D, N841I
The description is as §1.

The test system of assay [4] is Receptor-type tyrosine-protein kinase FLT3 (Homo sapiens), P36888 [UNDEFINED MUTATION]. Described as §1.

Substitutions are numbered along the chain they refer to.

In the case of `O=C(NOC[C@H](O)CO)c1ccc(F)c(F)c1Nc1ccc(I)cc1F`, the % of control in assay [1] came to 90%.

In the case of `C=CC(=O)Nc1cc(-n2c(=O)ccc3cnc4ccc(-c5ccc(NS(C)(=O)=O)cc5)cc4c32)ccc1C`, the % of control amounted to 89% in assay [2] (at 1 µM); 100% in assay [2] (at 10 µM); 85% in assay [3] (at 1 µM); 86% in assay [3] (at 10 µM); 99% in assay [4] (at 1 µM); 100% in assay [4] (at 10 µM).
